Reference: PubChem BioAssay AID2060899 (Molecular Pharmacology Branch, DTP, NCI, 2025)

System: 565726-208-R1-J5-PDC complex spheroids, growth inhibition
Assay: Anticancer human tumor 565726-208-R1-J5-PDC patient-derived pancreatic adenocarcinoma cell line growth inhibition [RAS]
Conditions: for IC50: curve of first compound; for viability, T/C: stronger effect = lower value
Excerpt: RAS pathway inhibitors in Combinations in Complex Spheroids
A high-throughput screen of multi-cell type tumor spheroids was designed to identify active combinations of RAS pathway inhibitors and targeted small molecules. Complex spheroids include a stromal component modeled by human endothelial cells (HUVEC) and fibroblasts modeled by human mesenchymal stem cells (MSCs). The concentration ranges selected for each drug and investigational agent were based upon clinically achievable concentrations if the clinical Cmax of the agent was known.
Compounds. The drugs and investigational agents: abemaciclib (NSC768073), cobimetinib (NSC768068), divarasib (GDC6063, NSC841802), docetaxel (NSC628503), GDC-1971 (RLY-1971, NSC841576), gemcitabine (NSC613327), inavolisib (NSC800729), ipatasertib (NSC767898), KB-0742 (NSC834161), MRTX-1133 (NSC836407), osimertinib (NSC779217), RMC-4630 (NSC839698), RMC-6236 (NSC851965), RMC-6291 (NSC852671), Ro-3306 (NSC812927), sapanisertib (NSC764658), SN-38 (NSC673596), staurosporine (NSC755774), SY5609 (NSC837396), and tovorafenib (DAY101, NSC766906), were obtained from the National Cancer Institute (NCI) Developmental Therapeutics Program Chemical Repository. The FDA-approved anticancer drug set is available from the NCI Developmental Therapeutics Program. […] The stock solutions were prepared in dimethyl sulfoxide (DMSO, Sigma-Aldrich, St. Louis, MO, cat. D2650) at 800-fold the tested concentration and stored at -70 degrees C prior to their use. All drugs and investigational agents were tested over a range starting from a high concentration at or near the clinical Cmax and decreasing in half-log increments. If the clinical Cmax for an agent had not been determined, the highest concentration tested was 10 microM.
Cell Culture. All cells were maintained in an incubator at 37 degrees C and 5% CO2 with 95% humidity. The PDC lines were cultured according to standard operating procedures established by the NCI PDMR. All PDCs were thawed and cultured in Matrigel-coated flasks prepared with a working solution of 1X Ham's F-12 nutrient mix, without supplementation (Invitrogen, Waltham, MA, cat. 11765054), 100 U/mL penicillin-streptomycin (Invitrogen, cat. 15140122), and 2.5% Matrigel (Corning Inc., Corning, NY, cat. 354248) for the first three passages. The 362531-283-R-J2-PDC and 782815-120-R-J1-PDC lines were cultured in 6C/Colon 1B media, which includes advanced DMEM/F-12 (Thermo Fisher Scientific, cat. 12634028), 10 mM HEPES (Thermo Fisher Scientific, cat. 15630080), 1X GlutaMAX supplement (Thermo Fisher Scientific, cat. 35050061), 0.1 mg/mL primocin (InvivoGen, San Diego, CA, cat. ant-pm-2), 10% defined fetal bovine serum, heat inactivated (HyClone Laboratories Inc., Logan, UT, cat. SH30070.03HI), 50% L-WRN conditioned media (ATCC, cat. CRL-3276), 1.25 mM N-Acetyl-L-cysteine (Sigma-Aldrich, cat. A9165), 10 mM nicotinamide (Sigma-Aldrich, cat. N0636), 1X B-27 supplement (Thermo Fisher Scientific, cat. 17504044), 1X N-2 supplement (Thermo Fisher Scientific, cat. 17502048), 50 ng/mL human EGF (Thermo Fisher Scientific, cat. PHG0311), and 10 microM Y-27632 dihydrochloride (Tocris Bioscience, cat. 1254). The K12877-001-R-J1-PDC line was cultured in 6I media, which includes all 6C/Colon 1B media plus 10 ng/mL human FGF-10 (PeproTech, cat. 100-26), 1 ng/mL human FGF-2 (PeproTech, cat. 100-18B), 1 µM prostaglandin E2 (Tocris Bioscience, cat. 2296), […] hydrocortisone (Sigma-Aldrich, cat. H4001), and […] bovine insulin (Sigma-Aldrich, cat. I6634). The K86415-001-R-J1-PDC line was cultured in 6D media, which includes all 6C/Colon 1B media components minus the L-WRN conditioned media. The 485176-168-R4-J1-PDC was cultured in PANC media, which includes all 6C/Colon 1B media plus 100 ng/mL human FGF-10 (PeproTech, cat. 100-26), 500 nM SB-431542 (Selleckchem, cat. S1067), and 10 nM gastrin (Tocris Bioscience, cat. 3006). […]
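Further: spheroids exposed to compounds for seven days before readout.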
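Wherever viability, T/C is given: 100% = DMSO vehicle control viability.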

With `C[C@@H](NC(=O)c1ncnc(N)c1Cl)c1ncc(C(=O)Nc2cc(C(F)(F)F)c(Cl)cn2)s1` + CCn1c(-c2cc(N3CCN(C)CC3)cnc2C(C)OC)c2c3cc(ccc31)-c1csc(n1)CC(NC(=O)C1CC1C)C(=O)N1CCCC(N1)C(=O)OCC(C)(C)C2 the IC50 (second compound 0.000949 µM) was greater than 10000 nM, the IC50 (second compound 0.003 µM) was greater than 10000 nM and the IC50 (second compound 0.00949 µM) was less than 31.6 nM. The IC50 (second compound 0.03 µM) was less than 31.6 nM, the IC50 (second compound 0.0949 µM) was less than 31.6 nM and the IC50 (second compound 0.3 µM) was less than 31.6 nM. For the same compound, the viability, T/C (second compound 0.000949 µM, first compound 0.0316 µM) was 65.1%, the viability, T/C (second compound 0.000949 µM, first compound 0.1 µM) was 73.5% and the viability, T/C (second compound 0.000949 µM, first compound 0.316 µM) was 76.7%. The viability, T/C (second compound 0.000949 µM, first compound 1 µM) was 69.5%, the viability, T/C (second compound 0.000949 µM, first compound 3.16 µM) was 72.1% and the viability, T/C (second compound 0.000949 µM, first compound 10 µM) was 58%. It also gave a viability, T/C (second compound 0.003 µM, first compound 0.0316 µM) of 61%, a viability, T/C (second compound 0.003 µM, first compound 0.1 µM) of 57.5% and a viability, T/C (second compound 0.003 µM, first compound 0.316 µM) of 57.3%. The viability, T/C (second compound 0.003 µM, first compound 1 µM) was 58.1%, the viability, T/C (second compound 0.003 µM, first compound 3.16 µM) was 56.8% and the viability, T/C (second compound 0.003 µM, first compound 10 µM) was 46.5%. It also gave a viability, T/C (second compound 0.00949 µM, first compound 0.0316 µM) of 48%, a viability, T/C (second compound 0.00949 µM, first compound 0.1 µM) of 48.2% and a viability, T/C (second compound 0.00949 µM, first compound 0.316 µM) of 49.9%. The viability, T/C (second compound 0.00949 µM, first compound 1 µM) was 48%, the viability, T/C (second compound 0.00949 µM, first compound 3.16 µM) was 52.5% and the viability, T/C (second compound 0.00949 µM, first compound 10 µM) was 40.8%. For the same compound, the viability, T/C (second compound 0.03 µM, first compound 0.0316 µM) was 34.9%, the viability, T/C (second compound 0.03 µM, first compound 0.1 µM) was 39.1% and the viability, T/C (second compound 0.03 µM, first compound 0.316 µM) was 36.2%. It also gave a viability, T/C (second compound 0.03 µM, first compound 1 µM) of 37.4%, a viability, T/C (second compound 0.03 µM, first compound 3.16 µM) of 40.3% and a viability, T/C (second compound 0.03 µM, first compound 10 µM) of 31.4%. For the same compound, the viability, T/C (second compound 0.0949 µM, first compound 0.0316 µM) was 31.2%, the viability, T/C (second compound 0.0949 µM, first compound 0.1 µM) was 32.2% and the viability, T/C (second compound 0.0949 µM, first compound 0.316 µM) was 31.7%. For the same compound, the viability, T/C (second compound 0.0949 µM, first compound 1 µM) was 32.5%, the viability, T/C (second compound 0.0949 µM, first compound 3.16 µM) was 32.9% and the viability, T/C (second compound 0.0949 µM, first compound 10 µM) was 29.1%. The viability, T/C (second compound 0.3 µM, first compound 0.0316 µM) was 24.6%, the viability, T/C (second compound 0.3 µM, first compound 0.1 µM) was 27.8% and the viability, T/C (second compound 0.3 µM, first compound 0.316 µM) was 26.7%. For the same compound, the viability, T/C (second compound 0.3 µM, first compound 1 µM) was 29.8%, the viability, T/C (second compound 0.3 µM, first compound 3.16 µM) was 31% and the viability, T/C (second compound 0.3 µM, first compound 10 µM) was 28.2%.

In the case of `Cc1nc(N2CCC3(CC2)COC(C)C3N)c(CO)nc1Sc1ccnc(N)c1Cl` (centres undefined) + C#Cc1c(F)ccc2cc(O)cc(-c3ncc4c(N5CC6CCC(C5)N6)nc(OCC56CCCN5CC(F)C6)nc4c3F)c12, the IC50 (second compound 0.0316 µM) is reported as greater than 10000 nM, the IC50 (second compound 0.1 µM) is reported as greater than 10000 nM and the IC50 (second compound 0.316 µM) is reported as greater than 10000 nM. It also gave an IC50 (second compound 1 µM) greater than 10000 nM, an IC50 (second compound 3.16 µM) of 313 nM and an IC50 (second compound 10 µM) of 229 nM. It also gave a viability, T/C (second compound 0.0316 µM, first compound 0.0316 µM) of 116%, a viability, T/C (second compound 0.0316 µM, first compound 0.1 µM) of 125% and a viability, T/C (second compound 0.0316 µM, first compound 0.316 µM) of 79.6%. The viability, T/C (second compound 0.0316 µM, first compound 1 µM) was 77.1%, the viability, T/C (second compound 0.0316 µM, first compound 3.16 µM) was 90.7% and the viability, T/C (second compound 0.0316 µM, first compound 10 µM) was 104%. For the same compound, the viability, T/C (second compound 0.1 µM, first compound 0.0316 µM) was 103%, the viability, T/C (second compound 0.1 µM, first compound 0.1 µM) was 112% and the viability, T/C (second compound 0.1 µM, first compound 0.316 µM) was 71.6%. For the same compound, the viability, T/C (second compound 0.1 µM, first compound 1 µM) was 72.8%, the viability, T/C (second compound 0.1 µM, first compound 3.16 µM) was 92.4% and the viability, T/C (second compound 0.1 µM, first compound 10 µM) was 101%. For the same compound, the viability, T/C (second compound 0.316 µM, first compound 0.0316 µM) was 130%, the viability, T/C (second compound 0.316 µM, first compound 0.1 µM) was 108% and the viability, T/C (second compound 0.316 µM, first compound 0.316 µM) was 74.5%. It also gave a viability, T/C (second compound 0.316 µM, first compound 1 µM) of 67.8%, a viability, T/C (second compound 0.316 µM, first compound 3.16 µM) of 90.2% and a viability, T/C (second compound 0.316 µM, first compound 10 µM) of 80.3%. It also gave a viability, T/C (second compound 1 µM, first compound 0.0316 µM) of 119%, a viability, T/C (second compound 1 µM, first compound 0.1 µM) of 106% and a viability, T/C (second compound 1 µM, first compound 0.316 µM) of 55.8%. It also gave a viability, T/C (second compound 1 µM, first compound 1 µM) of 53.4%, a viability, T/C (second compound 1 µM, first compound 3.16 µM) of 57.8% and a viability, T/C (second compound 1 µM, first compound 10 µM) of 71.1%. It also gave a viability, T/C (second compound 3.16 µM, first compound 0.0316 µM) of 108%, a viability, T/C (second compound 3.16 µM, first compound 0.1 µM) of 94.5% and a viability, T/C (second compound 3.16 µM, first compound 0.316 µM) of 49.6%. For the same compound, the viability, T/C (second compound 3.16 µM, first compound 1 µM) was 42.8%, the viability, T/C (second compound 3.16 µM, first compound 3.16 µM) was 46% and the viability, T/C (second compound 3.16 µM, first compound 10 µM) was 57.3%. It also gave a viability, T/C (second compound 10 µM, first compound 0.0316 µM) of 80.9%, a viability, T/C (second compound 10 µM, first compound 0.1 µM) of 66.1% and a viability, T/C (second compound 10 µM, first compound 0.316 µM) of 43.5%. For the same compound, the viability, T/C (second compound 10 µM, first compound 1 µM) was 35.9%, the viability, T/C (second compound 10 µM, first compound 3.16 µM) was 34.6% and the viability, T/C (second compound 10 µM, first compound 10 µM) was 33%.
